23 molecules from patent US12162890B2 (Novartis AG, priority 2015, dated 2024) can be followed below.

Sequence of HEK293 cells with stable expression of the GRIN1 gene and tetracycline-inducible expression of the GRIN2B gene (NMDA receptor, NR2B) (Q13224 27-1484, other chains not shown): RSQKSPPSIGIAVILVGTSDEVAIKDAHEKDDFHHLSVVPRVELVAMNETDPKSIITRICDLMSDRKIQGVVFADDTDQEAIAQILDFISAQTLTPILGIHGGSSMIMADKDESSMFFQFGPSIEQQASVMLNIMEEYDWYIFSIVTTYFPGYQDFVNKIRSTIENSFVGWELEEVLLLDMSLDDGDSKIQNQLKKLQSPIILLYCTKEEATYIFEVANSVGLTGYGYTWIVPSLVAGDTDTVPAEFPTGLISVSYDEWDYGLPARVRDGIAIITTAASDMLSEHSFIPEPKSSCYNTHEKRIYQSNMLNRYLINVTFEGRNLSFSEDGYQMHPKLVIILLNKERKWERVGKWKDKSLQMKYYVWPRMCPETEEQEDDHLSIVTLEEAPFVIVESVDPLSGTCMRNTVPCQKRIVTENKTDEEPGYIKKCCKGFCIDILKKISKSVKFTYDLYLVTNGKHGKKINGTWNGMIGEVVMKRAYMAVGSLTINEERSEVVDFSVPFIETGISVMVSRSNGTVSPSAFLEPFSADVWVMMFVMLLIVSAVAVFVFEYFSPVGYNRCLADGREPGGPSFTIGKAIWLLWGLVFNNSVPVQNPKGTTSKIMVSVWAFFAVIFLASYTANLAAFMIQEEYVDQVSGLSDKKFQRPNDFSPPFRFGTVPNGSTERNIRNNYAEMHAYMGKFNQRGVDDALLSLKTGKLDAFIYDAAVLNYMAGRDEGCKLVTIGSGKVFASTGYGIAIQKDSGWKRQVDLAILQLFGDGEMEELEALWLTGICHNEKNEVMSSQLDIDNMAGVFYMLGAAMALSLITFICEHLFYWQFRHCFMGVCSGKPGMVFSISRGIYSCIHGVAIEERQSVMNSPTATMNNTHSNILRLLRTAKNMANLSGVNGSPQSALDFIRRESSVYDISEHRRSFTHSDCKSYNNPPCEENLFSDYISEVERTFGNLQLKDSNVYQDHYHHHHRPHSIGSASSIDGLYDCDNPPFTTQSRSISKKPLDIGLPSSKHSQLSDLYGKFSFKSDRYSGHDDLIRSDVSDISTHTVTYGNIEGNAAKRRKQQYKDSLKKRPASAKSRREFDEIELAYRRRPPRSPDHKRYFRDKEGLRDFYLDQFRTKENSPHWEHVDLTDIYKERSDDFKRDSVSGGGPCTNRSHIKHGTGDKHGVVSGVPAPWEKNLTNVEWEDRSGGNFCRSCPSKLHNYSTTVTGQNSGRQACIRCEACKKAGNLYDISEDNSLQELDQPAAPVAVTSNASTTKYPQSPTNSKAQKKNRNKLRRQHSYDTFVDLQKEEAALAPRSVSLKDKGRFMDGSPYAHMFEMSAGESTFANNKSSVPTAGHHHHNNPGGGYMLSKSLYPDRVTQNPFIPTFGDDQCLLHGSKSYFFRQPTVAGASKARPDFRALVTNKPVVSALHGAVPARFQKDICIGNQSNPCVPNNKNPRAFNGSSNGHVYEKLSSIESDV

The assay concerns the target HEK293 cells with stable expression of the GRIN1 gene and tetracycline-inducible expression of the GRIN2B gene (NMDA receptor, NR2B) (Homo sapiens, UniProt Q13224). As to the kind of experiment: Fluo-8 Ca2+ flux assay: reversal of Ro 25-6981-mediated suppression of the Ca2+ response to co-agonist (glutamate/glycine). Note: test concentration or dose not given here. The class given is cell-based. The settings on record: reversal of the Ro 25-6981 suppression of the Ca2+ response to co-agonist (glutamate/glycine). On the technique in general: Calcium flux is commonly read through the fluorescence of an indicator in the cells.
Take `O=C(Cn1cnc2[nH]nc(-c3ccc(Cl)c(C(F)(F)F)c3)c2c1=O)N1CCC(F)C1` (centres unmarked) [Example 318, 3-(4-chloro-3-(trifluoromethyl)phenyl)-5-(2-(3-fluoropyrrolidin-1-yl)-2-oxoethyl)-1H-pyrazolo[3,4-d]pyrimidin-4(5H)-one]: the “Response Recovered (%)” value turned out to be 26%.

Consider `O=C(Cn1cnc2[nH]nc(-c3ccc(Cl)c(F)c3)c2c1=O)N1CCCC1` [Example 319, 3-(4-chloro-3-fluorophenyl)-5-(2-oxo-2-(pyrrolidin-1-yl)ethyl)-1H-pyrazolo[3,4-d]pyrimidin-4(5H)-one], for which the “Response Recovered (%)” value amounted to 4%.

In the case of `O=C(Cn1cnc2[nH]nc(-c3ccc(Cl)c(C(F)(F)F)c3)c2c1=O)N1CC(F)(F)C1` [Example 320, 3-(4-Chloro-3-trifluoromethyl-phenyl)-5-[2-(3,3-difluoro-azetidin-1-yl)-2-oxo-ethyl]-1,5-dihydro-pyrazolo[3,4-d]pyrimidin-4-one], the “Response Recovered (%)” value came to 9%.

In the case of `O=C(Cn1ccn2ncc(-c3ccc(F)c(C(F)(F)F)c3)c2c1=O)N1CCC(F)C1` (centres unmarked) [Example 321, 3-(4-fluoro-3-(trifluoromethyl)phenyl)-5-(2-(3-fluoropyrrolidin-1-yl)-2-oxoethyl)pyrazolo[1,5-a]pyrazin-4(5H)-one], the “Response Recovered (%)” value is 46%.

In the case of `O=C(Cn1ccn2ncc(-c3ccc(F)c(C(F)(F)F)c3)c2c1=O)N1CC(F)C1` [Example 322, 3-(4-fluoro-3-(trifluoromethyl)phenyl)-5-(2-(3-fluoroazetidin-1-yl)-2-oxoethyl)pyrazolo[1,5-a]pyrazin-4(5H)-one], the “Response Recovered (%)” value is recorded as 33%.

Consider `O=C(Cn1ccn2ncc(-c3ccc(F)c(C(F)(F)F)c3)c2c1=O)N1CCCC1` [Example 323, 3-(4-fluoro-3-(trifluoromethyl)phenyl)-5-(2-oxo-2-(pyrrolidin-1-yl)ethyl)pyrazolo[1,5-a]pyrazin-4(5H)-one], for which the “Response Recovered (%)” value was 40%.

Turning to `O=C(Cn1ccn2ncc(-c3ccc(F)c(C(F)(F)F)c3)c2c1=O)N1CC(F)(F)C1` [Example 324, 5-(2-(3,3-difluoroazetidin-1-yl)-2-oxoethyl)-3-(4-fluoro-3-(trifluoromethyl)phenyl)pyrazolo[1,5-a]pyrazin-4(5H)-one], the “Response Recovered (%)” value stood at 51%.

Take `O=C(Cn1ccn2ncc(-c3ccc(Cl)c(Cl)c3)c2c1=O)N1CC(F)(F)C1` [Example 325, 3-(3,4-dichlorophenyl)-5-(2-(3,3-difluoroazetidin-1-yl)-2-oxoethyl)pyrazolo[1,5-a]pyrazin-4(5H)-one]: the “Response Recovered (%)” value is on record as 50%.

Take `O=C(Cn1ccn2ncc(-c3ccc(Cl)c(Cl)c3)c2c1=O)N1CCCC1` [Example 326, 3-(3,4-dichlorophenyl)-5-(2-oxo-2-(pyrrolidin-1-yl)ethyl)pyrazolo[1,5-a]pyrazin-4(5H)-one]: the “Response Recovered (%)” value amounted to 29%.

As to `O=C(Cn1ccn2ncc(-c3ccc(Cl)c(Cl)c3)c2c1=O)N1CCC(F)C1` (centres unmarked) [Example 327, 3-(3,4-dichlorophenyl)-5-(2-(3-fluoropyrrolidin-1-yl)-2-oxoethyl)pyrazolo[1,5-a]pyrazin-4(5H)-one], the “Response Recovered (%)” value was 54%.

In the case of `O=C(Cn1ccn2ncc(-c3ccc(F)c(Cl)c3)c2c1=O)N1CC(F)(F)C1` [Example 328, 3-(3-chloro-4-fluorophenyl)-5-(2-(3,3-difluoroazetidin-1-yl)-2-oxoethyl)pyrazolo[1,5-a]pyrazin-4(5H)-one], the “Response Recovered (%)” value came to 29%.

For the molecule `CC1(F)CN(C(=O)Cn2ccn3ncc(-c4ccc(F)c(Cl)c4)c3c2=O)C1` [Example 329, 3-(3-chloro-4-fluorophenyl)-5-(2-(3-fluoro-3-methylazetidin-1-yl)-2-oxoethyl)pyrazolo[1,5-a]pyrazin-4(5H)-one], the “Response Recovered (%)” value was 110%.

Consider `O=C(Cn1nnc2scc(-c3ccc(F)c(Cl)c3)c2c1=O)N1CCCC1` [Example 330, 5-(3-chloro-4-fluorophenyl)-3-(2-oxo-2-(pyrrolidin-1-yl)ethyl)thieno[2,3-d][1,2,3]triazin-4(3H)-one], for which the “Response Recovered (%)” value is listed as 6%.

With `O=C(Cn1nnc2scc(-c3ccc(Cl)c(C(F)(F)F)c3)c2c1=O)N1CCCC1` [Example 331, 5-[4-chloro-3-(trifluoromethyl)phenyl]-3-[2-oxo-2-(pyrrolidin-1-yl)ethyl]-3H,4H-thieno[2,3-d][1,2,3]triazin-4-one], the “Response Recovered (%)” value was found to be 8%.

Regarding `O=C(Cn1nnc2scc(-c3ccc(Cl)c(C(F)(F)F)c3)c2c1=O)N1CCC(F)C1` (centres unmarked) [Example 332, 5-(4-chloro-3-(trifluoromethyl)phenyl)-3-(2-(3-fluoropyrrolidin-1-yl)-2-oxoethyl)thieno[2,3-d][1,2,3]triazin-4(3H)-one], the “Response Recovered (%)” value turned out to be 20%.

For the molecule `O=C(Cn1nnc2scc(-c3ccc(Cl)c(C(F)(F)F)c3)c2c1=O)N1CC(F)(F)C1` [Example 333, 5-(4-chloro-3-(trifluoromethyl)phenyl)-3-(2-(3,3-difluoroazetidin-1-yl)-2-oxoethyl)thieno[2,3-d][1,2,3]triazin-4(3H)-one], the “Response Recovered (%)” value was determined as 13%.

Consider `O=C(Cn1nnc2scc(-c3ccc(Cl)c(C(F)(F)F)c3)c2c1=O)N1CCCC1C(F)(F)F` (centres unmarked) [Example 334, 5-(4-chloro-3-(trifluoromethyl)phenyl)-3-(2-oxo-2-(2-(trifluoromethyl)pyrrolidin-1-yl)ethyl)thieno[2,3-d][1,2,3]triazin-4(3H)-one], for which the “Response Recovered (%)” value is listed as 2%.

For the molecule `O=C(Cn1ncc2scc(-c3ccc(Cl)c(C(F)(F)F)c3)c2c1=O)N1CCCC1` [Example 335, 3-(4-chloro-3-(trifluoromethyl)phenyl)-5-(2-oxo-2-(pyrrolidin-1-yl)ethyl)thieno[2,3-d]pyridazin-4(5H)-one], the “Response Recovered (%)” value is given as 23%.

As to `O=C(Cn1ncc2scc(-c3ccc(Cl)c(F)c3)c2c1=O)N1CCCC1` [Example 336, 3-(4-chloro-3-fluorophenyl)-5-(2-oxo-2-(pyrrolidin-1-yl)ethyl)thieno[2,3-d]pyridazin-4(5H)-one], the “Response Recovered (%)” value came to 3%.

Turning to `O=C(Cn1ncc2scc(-c3ccc(F)c(Cl)c3)c2c1=O)N1CCCC1` [Example 337, 3-(3-chloro-4-fluorophenyl)-5-(2-oxo-2-(pyrrolidin-1-yl)ethyl)thieno[2,3-d]pyridazin-4(5H)-one], the “Response Recovered (%)” value is listed as 7%.

On to `O=C(Cn1ncc2scc(-c3ccc(Cl)c(Cl)c3)c2c1=O)N1CCCC1` [Example 338, 3-(3,4-dichlorophenyl)-5-(2-oxo-2-(pyrrolidin-1-yl)ethyl)thieno[2,3-d]pyridazin-4(5H)-one], for which the “Response Recovered (%)” value was determined as 15%.

As for `O=C(Cn1ncc2scc(-c3ccc(Cl)c(C(F)(F)F)c3)c2c1=O)N1CC(F)(F)C1` [Example 339, 3-(4-chloro-3-(trifluoromethyl)phenyl)-5-(2-(3,3-difluoroazetidin-1-yl)-2-oxoethyl)thieno[2,3-d]pyridazin-4(5H)-one], the “Response Recovered (%)” value is 20%.

With `O=C(Cn1ncc2scc(-c3ccc(Cl)c(F)c3)c2c1=O)N1CC(F)(F)C1` [Example 340, 3-(4-chloro-3-fluorophenyl)-5-(2-(3,3-difluoroazetidin-1-yl)-2-oxoethyl)thieno[2,3-d]pyridazin-4(5H)-one], the “Response Recovered (%)” value came to 3%.
